The results in this text go back to patent US20240246964A1 (Arbutus Biopharma Corporation, priority 2021, published 2024).

The structures appear in SMILES notation. pEC50: −log10 of the molar value.

Chain of human PD-L1 (Q9NZQ7 19-290): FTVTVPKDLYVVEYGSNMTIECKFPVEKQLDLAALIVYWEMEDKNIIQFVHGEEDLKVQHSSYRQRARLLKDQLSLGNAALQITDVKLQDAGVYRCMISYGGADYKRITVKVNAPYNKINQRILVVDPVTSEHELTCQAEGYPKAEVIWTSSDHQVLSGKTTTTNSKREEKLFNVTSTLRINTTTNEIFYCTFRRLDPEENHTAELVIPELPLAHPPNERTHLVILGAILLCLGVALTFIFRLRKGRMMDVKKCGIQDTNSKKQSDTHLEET

This assay has as its target human PD-L1 (Homo sapiens (Human), UniProt Q9NZQ7). Description: T cell activation luciferase reporter cell culture system (T Cell Activation Assay). To be noted: luciferase reporter assay; PD-L1 aAPC/CHO-K1 cells with PD-1 effector Jurkat T cells. Type of assay: cell-based. In general terms: Reporter assays use an easily measured gene product as a stand-in for the process of interest.
For `COc1cc(-c2ncnc(-c3cccc(-c4ccc(CN5CC6(CNC(=O)C6)C5)c(OC)n4)c3Cl)c2OC)ccc1CN1CC2(CNC(=O)C2)C1` [Example 727, 2-((6-(2-Chloro-3-(5-methoxy-6-(3-methoxy-4-((7-oxo-2,6-diazaspiro[3.4]octan-2-yl)methyl)phenyl)pyrimidin-4-yl)phenyl)-2-methoxypyridin-3-yl)methyl)-2,6-diazaspiro[3.4]octan-7-one], the pEC50 – broadly, the negative decadic logarithm of the EC50, by convention in mol/L – is ≤ 5.00. In the case of `COc1cc(-c2ncnc(-c3cccc(-c4ccc(CNCCO)c(OC)n4)c3Cl)c2OC)ccc1CNCCO` [Example 728, 2-((4-(6-(2-Chloro-3-(5-(((2-hydroxyethyl)amino)methyl)-6-methoxypyridin-2-yl)phenyl)-5-methoxypyrimidin-4-yl)-2-methoxybenzyl)amino)ethan-1-ol] it was ≤ 5.00; in that of `CNCc1ccc(-c2ccnc(-c3cccc4c3CCC[C@@H]4Nc3nc(OC)c(CNC)cc3C(F)(F)F)c2Cl)nc1OC` [Example 732, (S)—N-(5-(3′-Chloro-6-methoxy-5-((methylamino)methyl)-[2,4′-bipyridin]-2′-yl)-1,2,3,4-tetrahydronaphthalen-1-yl)-6-methoxy-5-((methylamino)methyl)-3-(trifluoromethyl)pyridin-2-amine], ≤ 5.00. The value for `COc1cc(-c2nccc(-c3cccc(NC(=O)c4ccc(CNCCO)cn4)c3Cl)c2Cl)ccc1CNC1CCN(C(C)=O)CC1` [Example 733, N-(3-(2-(4-(((1-Acetylpiperidin-4-yl)amino)methyl)-3-methoxyphenyl)-3-chloropyridin-4-yl)-2-chlorophenyl)-5-(((2-hydroxyethyl)amino)methyl)picolinamide] was 7.54; that for `COc1cc(-c2ncnc(-c3cccc(-c4ccc(CNC5CCOCC5)c(OC)n4)c3Cl)c2OC)ccc1CNC1CCOCC1` [Example 734, N-((6-(2-Chloro-3-(5-methoxy-6-(3-methoxy-4-(((tetrahydro-2H-pyran-4-yl)amino)methyl)phenyl)pyrimidin-4-yl)phenyl)-2-methoxypyridin-3-yl)methyl)tetrahydro-2H-pyran-4-amine] was ≤ 5.00; that for `COc1cc(-c2nccc(-c3cccc4c3CCC[C@@H]4Nc3nc(OC)c(CNC[C@H](C)O)cc3C(F)(F)F)c2Cl)ccc1CNC[C@@H]1CCC(=O)N1` [Example 736, (S)-5-(((4-(3-Chloro-4-((S)-5-((5-((((S)-2-hydroxypropyl)amino)methyl)-6-methoxy-3-(trifluoromethyl)pyridin-2-yl)amino)-5,6,7,8-tetrahydronaphthalen-1-yl)pyridin-2-yl)-2-methoxybenzyl)amino)methyl)pyrrolidin-2-one] was ≤ 5.00.

In the case of `COc1cc(-c2ncnc(-c3cccc(-c4ccc(CN[C@H]5C[C@@H](O)C5)c(OC)n4)c3Cl)c2Cl)ccc1CN1CC2(CNC(=O)C2)C1` [Example 737, 2-(4-(5-Chloro-6-(2-chloro-3-(5-((((1s,3s)-3-hydroxycyclobutyl)amino)methyl)-6-methoxypyridin-2-yl)phenyl)pyrimidin-4-yl)-2-methoxybenzyl)-2,6-diazaspiro[3.4]octan-7-one], the pEC50 is 6.96. In the case of `COc1nc(-c2nccc(-c3cccc(NC(=O)c4cn(C)c(=O)n(C)c4=O)c3Cl)c2Cl)ccc1CNC[C@@H]1CCC(=O)N1` [Example 738, (S)—N-(2-Chloro-3-(3-chloro-6′-methoxy-5′-((((5-oxopyrrolidin-2-yl)methyl)amino)methyl)-[2,2′-bipyridin]-4-yl)phenyl)-1,3-dimethyl-2,4-dioxo-1,2,3,4-tetrahydropyrimidine-5-carboxamide] it was 6.57. In the case of `COc1nc(-c2nccc(-c3cccc(NC(=O)c4cn(C)c(=O)n(C)c4=O)c3Cl)c2Cl)ccc1CNC[C@H](C)O` [Example 739, (S)—N-(2-Chloro-3-(3-chloro-5′-(((2-hydroxypropyl)amino)methyl)-6′-methoxy-[2,2′-bipyridin]-4-yl)phenyl)-1,3-dimethyl-2,4-dioxo-1,2,3,4-tetrahydropyrimidine-5-carboxamide] it was 5.73; in that of `COc1cc(-c2ncnc(-c3cccc(-c4ccc(CN[C@H]5C[C@H](O)C5)c(OC)n4)c3Cl)c2Cl)ccc1CN1CC2(CNC(=O)C2)C1` [Example 740], 7.09. For the molecule `CNCc1ccc(-c2nccc(-c3cccc4c3CCC[C@@H]4Nc3nc(OC)c(CNC)cc3C(F)(F)F)c2Cl)cc1OC` [Example 741, (S)—N-(5-(3-Chloro-2-(3-methoxy-4-((methylamino)methyl)phenyl)pyridin-4-yl)-1,2,3,4-tetrahydronaphthalen-1-yl)-6-methoxy-5-((methylamino)methyl)-3-(trifluoromethyl)pyridin-2-amine], the pEC50 was ≤ 5.00.

On to `COc1cc(-c2ncnc(-c3cccc(-c4ccc(CNC[C@@H]5CCC(=O)N5)c(OC)n4)c3Cl)c2Cl)ccc1CN1CC2(CNC(=O)C2)C1` [Example 742, (S)-2-(4-(5-Chloro-6-(2-chloro-3-(6-methoxy-5-((((5-oxopyrrolidin-2-yl)methyl)amino)methyl)pyridin-2-yl)phenyl)pyrimidin-4-yl)-2-methoxybenzyl)-2,6-diazaspiro[3.4]octan-7-one], for which the pEC50 is 7.54. In the case of `COc1cc(-c2ncnc(-c3cccc(-c4ccc(CN5CC6(CCC(=O)N6)C5)c(OC)n4)c3Cl)c2OC)ccc1CN1CC2(CCC(=O)N2)C1` [Example 743, 2-((6-(2-Chloro-3-(5-methoxy-6-(3-methoxy-4-((6-oxo-2,5-diazaspiro[3.4]octan-2-yl)methyl)phenyl)pyrimidin-4-yl)phenyl)-2-methoxypyridin-3-yl)methyl)-2,5-diazaspiro[3.4]octan-6-one] it was ≤ 5.00; in that of `COc1cc(-c2nccc(-c3cccc(NC(=O)c4ccc(CNCCO)cn4)c3C)c2Cl)ccc1CN1CC2(CNC(=O)C2)C1` [Example 744, N-(3-(3-Chloro-2-(3-methoxy-4-((7-oxo-2,6-diazaspiro[3.4]octan-2-yl)methyl)phenyl)pyridin-4-yl)-2-methylphenyl)-5-(((2-hydroxyethyl)amino)methyl)picolinamide], 6.81. The value for `COc1cc(-c2nccc(-c3cccc(NC(=O)c4ccc(CNC[C@@H]5CCC(=O)N5)cn4)c3C)c2Cl)ccc1CNC1CCN(C(C)=O)CC1` [Example 747, (S)—N-(3-(2-(4-(((1-acetylpiperidin-4-yl)amino)methyl)-3-methoxyphenyl)-3-chloropyridin-4-yl)-2-methylphenyl)-5-((((5-oxopyrrolidin-2-yl)methyl)amino)methyl)picolinamide] was 6.08; that for `COc1cc(-c2nccc(-c3cccc(NC(=O)c4ccc(CNC[C@@H]5CCC(=O)N5)cn4)c3C)c2Cl)ccc1CNC1CCOCC1` [Example 748, (S)—N-(3-(3-chloro-2-(3-methoxy-4-(((tetrahydro-2H-pyran-4-yl)amino)methyl)phenyl)pyridin-4-yl)-2-methylphenyl)-5-((((5-oxopyrrolidin-2-yl)methyl)amino)methyl)picolinamide] was 6.00. The molecule `COc1cc(-c2nccc(-c3cccc(NC(=O)c4ccc(CNC[C@@H]5CCC(=O)N5)cn4)c3C)c2Cl)ccc1CNCCO` [Example 750, (S)—N-(3-(3-Chloro-2-(4-(((2-hydroxyethyl)amino)methyl)-3-methoxyphenyl)pyridin-4-yl)-2-methylphenyl)-5-((((5-oxopyrrolidin-2-yl)methyl)amino)methyl)picolinamide] had a pEC50 of 6.15.
